According to patent publication US20210147481A1, “PEPTIDE-BASED INHIBITORS OF MARK FAMILY PROTEINS” (Ohio Universtiy, priority 2017, published 2021):
Peptide text beside a SMILES is read from it.

Legend:
MARK2 = MARK2 (Rattus norvegicus, UniProt O08679); experiment: Immunofluorescence of PAO-induced MARK2-mediated tau Ser262 phosphorylation in neurons; format: cell-based
[1] = test system: kinases that phosphorylate tau at Thr231; experiment: Immunofluorescence of tau Thr231 phosphorylation in neurons; format: cell-based, rat
[2] = In vitro peptide stability in neurobasal (NB) media (RP-HPLC); format: in vitro ADME; settings: 37° C., up to 24 hours
Experimental: (§1) Stock peptide solutions for use in stability assays were prepared by dissolving tR1 to a final concentration of 5 mg/mL in dimethyl sulfoxide (DMSO). For stability tests, 2 μL of stock tR1 peptides were added to 198 μL pre-warmed RPMI medium supplemented with 25% (v/v) heat-inactivated human AB serum or neurobasal (NB) media at a final concentration of 50 μg/mL. Each reaction was subsequently incubated at 37° C. for the indicated times. Following incubation, 400 μL aqueous trichloroacetic acid (15%, w/v) was added to each reaction and the samples were immediately cooled on ice for 15 minutes. The samples were then centrifuged 3× at 14,000 rpm to remove precipitated proteins. […] The background signal was subtracted from each respective spectrum and the fraction of intact peptide was quantified from product peak integration normalized to undigested controls. […]
(§2) A major limitation to the therapeutic efficacy of peptides is their susceptibility to proteolytic degradation. Indeed, short peptides generally have a serum half-life measured in minutes. The in vitro stability of tR1 peptides in the presence of proteolytic enzymes was determined. […] Following the incubation, the reactions were quenched using haloacetic acids and the extent of degradation was quantified by analytical HPLC.

[3] = In vitro peptide stability in RPMI medium with 25% (v/v) human serum (RP-HPLC); format: in vitro ADME; settings: 37° C., up to 24 hours
Experimental: as §1, §2

[4] = test system: rat primary cortical neurons; settings: 72 hours
Experimental: Primary cells were isolated from embryonic Sprauge-Dawley rats and cultured as described.
High density rat primary cortical neurons (5-7 DIV) cultured in polyE coated 24-well plates were used for this assay. Culture media was switched to neurobasal without B27 supplement (NB-B27) before the addition of tR1 peptides. […] For the MTT assay, 50 μg/mL MTT working solution was diluted from a 5 mg/mL MTT stock (water solution made from MTT powder, Alfa Aesar L11939) in NB-B27. After aspirating out the culture media, cells were incubated with 0.2 mL 50 μg/mL MTT working solution for one hour at 37° C. Then, the MTT solution was aspirated and replaced with 0.5 mL DMSO. The whole DMSO solution was transferred to a cuvette and read in the spectrophotometer (Cary UV 50, Varian) at 550 nm with subtraction of the reading at 650 nm wavelength.

MARK2, sequence (O08679 whole entry): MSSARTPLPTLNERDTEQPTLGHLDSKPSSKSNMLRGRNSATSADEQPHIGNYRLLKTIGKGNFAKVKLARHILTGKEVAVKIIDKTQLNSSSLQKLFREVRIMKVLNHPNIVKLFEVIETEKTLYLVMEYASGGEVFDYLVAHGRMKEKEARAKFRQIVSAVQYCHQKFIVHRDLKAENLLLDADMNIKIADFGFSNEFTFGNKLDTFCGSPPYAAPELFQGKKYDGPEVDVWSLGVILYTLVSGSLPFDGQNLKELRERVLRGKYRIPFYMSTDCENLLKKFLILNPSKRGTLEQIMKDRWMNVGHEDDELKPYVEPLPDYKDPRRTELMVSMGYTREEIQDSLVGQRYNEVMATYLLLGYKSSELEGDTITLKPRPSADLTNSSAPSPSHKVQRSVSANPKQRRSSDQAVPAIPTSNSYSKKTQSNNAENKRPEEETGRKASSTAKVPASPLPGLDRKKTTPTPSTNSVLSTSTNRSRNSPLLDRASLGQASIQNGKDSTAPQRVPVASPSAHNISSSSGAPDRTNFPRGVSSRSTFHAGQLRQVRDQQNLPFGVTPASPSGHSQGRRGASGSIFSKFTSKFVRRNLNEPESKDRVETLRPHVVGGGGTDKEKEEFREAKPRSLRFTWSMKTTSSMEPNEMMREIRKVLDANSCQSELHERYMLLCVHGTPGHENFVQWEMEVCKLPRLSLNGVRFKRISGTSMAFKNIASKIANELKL

CC[C@H](C)[C@H](NC(=O)[C@H](CCCCN)NC(=O)[C@H](CO)NC(=O)[C@H](CCCCN)NC(=O)[C@@H](NC(=O)[C@H](CC(N)=O)NC(C)=O)C(C)C)C(=O)NCC(=O)N[C@@H](CO)C(=O)N[C@H](C(=O)N[C@@H](CCC(=O)O)C(=O)N[C@@H](CC(N)=O)C(=O)N[C@@H](CC(C)C)C(=O)N[C@@H](CCCCN)C(N)=O)[C@@H](C)O [tR1, NVKSKIGSTENLK] (Ac-NVKSKIGSTENLK-NH2)
reduction in tau Ser262 phosphorylation (MARK2; 10 μM tR1, co-treated with bafilomycin A1 or 100 μM chloroquine, 5 μM PAO): modest reduction in tau phosphorylation
loss in tau pSer262 signal compared to cells treated with PAO alone (MARK2; 30 μM peptide and bafilomycin, PAO): ~50%
loss in tau pSer262 signal (MARK2; 30 μM peptide and chloroquine, PAO): loss in signal comparable to that of baseline
inhibition of MARK2-mediated phosphorylation of tau Ser262 (MARK2; 30 μM tR1, co-treated with bafilomycin A1 or 100 μM chloroquine, 5 μM PAO): near complete inhibition
inhibition of MARK2-mediated phosphorylation of tau Ser262 (MARK2; tR1 peptides alone (no endosome disruptor), 5 μM PAO): did not inhibit
level of pTau Thr231 compared to untreated control cells ([1]; 30 μM tR1 and 100 μM CLQ, no PAO): did not show any significant loss of pTau Thr231
effect on PAO-mediated inhibition of tau Thr231 phosphorylation ([1]; tR1 with PAO, even in the presence of CLQ): did not influence the PAO-mediated inhibition of tau Thr231 phosphorylation
fraction of intact tR1 (stable) [2]: > 90%
remaining at 24 h, 50 μg/mL ([2]; neurobasal (NB) media, read-out: fraction of intact tR1 (stable)): > 90%
fraction of intact tR1 (stable) [3]: > 90%
remaining at 24 h, 50 μg/mL ([3]; RPMI medium with 25% (v/v) heat-inactivated human AB serum, read-out: fraction of intact tR1 (stable)): > 90%
concentrations at which tR1 is non-toxic ([4]; MTT): up to 300 μM
loss in cell viability ([4]; highest concentrations of tR1 (0-300 μM)): < 5%
